Measurements from patent US20060088560A1, “Cosmetic use of mangiferin” (LA[…] BIOLOGIE VEGETALE YVES ROCHER, priority 2004, published 2006).

Legend:
HSP70 [1] = test: Curative protection: HSP70 immunolabeling in normal human dermal fibroblasts treated with mangiferin after hot heat stress; format: cell-based
Protocol: The fibroblasts (NHDFS) are seeded (passage 3) onto glass Labtek culture chambers (8 chambers/slide) to a proportion of 10 000 cells/chamber and incubated for 10 hours in an incubator at 37° C., 5% CO2 and 95% humidity. The culture medium consists of DMEM devoid of phenol red (Invitrogen, ref. 31053028) supplemented with 10% fetal calf serum (FCS) (Invitrogen, ref 16010159, batch 40F1420D), 1% of a solution of non-essential amino acids (Invitrogen, ref 11140035), 100 μg/ml penicillin, 100 U/ml streptomycin, 2 mM L-gluthamine and 1% of a sodium pyruvate solution (Invitrogen, ref. 11360039).
The NHDFs are rinsed in the HBSS solution then incubated 15 hours in the culture medium (DMEM with 1% FCS), in an incubator at 37° C., 5% CO2 and 95% humidity.
The cells are subsequently rinsed in an HBSS solution (Invitrogen, ref. 14025050) then placed under conditions of hot thermal stress: incubation 1 hour at +45° C. in the HBSS solution (0.4 ml per chamber).
After the stress, the cells are rinsed in the HBSS solution then treated for 8 hours with the mangiferin solubilized in the DMSO, then diluted in the culture medium (DMEM with 1% FCS) to 2.10^−4%. A reference culture medium is also made on the same slide.
The cells are rinsed in an HBSS solution 8 hours after the stress. The culture chambers are removed and the cells left to dry under a laminar flow hood. […]

HSP70 [2] = test: Preventive protection: HSP70 immunolabeling in normal human dermal fibroblasts treated with mangiferin before hot heat stress; format: cell-based
Protocol: Normal human dermal fibroblasts (NHDFs) are seeded (passage 3) onto glass Labtek culture chambers (8 chambers/slide) to a proportion of 10 000 cells/chamber and incubated for 10 hours in an incubator at 37° C., 5% CO2 and 95% humidity. The culture medium consists of DMEM devoid of phenol red (Invitrogen, ref. 31053028) supplemented with 10% fetal calf serum (FCS) (Invitrogen, ref 16010159, batch 40F1420D), 1% of a solution of non-essential amino acids (Invitrogen, ref 11140035), 100 μg/ml penicillin, 100 U/ml streptomycin, 2 mM L-gluthamine and 1% of a sodium pyruvate solution (Invitrogen, ref. 11360039).
The NHDFs are treated for 15 hours with mangiferin solubilized at 0.1% in DMSO, then diluted in the culture medium (DMEM with 1% FCS) to 2.10^−4%. A reference culture medium is also made on the same slide. To validate the study, a slide is treated in the same manner but the cells are not subjected to stress.
The cells are subsequently rinsed in Hanks Balanced Saline Solution (HBSS buffer Invitrogen, ref. 14025050) then placed under hot thermal stress conditions: incubation 1 hour at +45° C. in the HBSS solution (0.4 ml per chamber.).
After the stress, the cells are rinsed in the HBSS solution then incubated 8 hours in the culture medium (DMEM with 1% FCS), in an incubator at 37° C., 5% CO2 and 95% humidity.
The cells are rinsed in HBSS solution 8 hours after the stress. […]

[3] = cited from earlier work
MMP1 metalloprotease = test: Assay of MMP1 metalloprotease (ELISA, per viable cell unit by MTT) in NHDFs after heat stimulation; format: cell-based, human; conditions: mangiferin 2.10^-4% w/v, MMP1 per viable cell unit vs reference without mangiferin
Text: In this example, to illustrate the inhibitive action of mangiferin on the expression of MMP enzymes, the quantity of MMP1 enzymes present in normal human dermal fibroblasts (NHDFs) after a heat stress in the presence of mangiferin was compared with the quantity obtained for NHDFs in a reference medium subjected to the same conditions but without the presence of mangiferin.
This comparison was made for different conditions of heat treatment (no stress, hot stress, cold stress).
In each case, the tested NHDFs were placed in culture then treated under the following conditions:
The first day (day D), the NHDFs were seeded to a proportion of 160 000 cells/well/mL in 24-well plates in a normal medium.
The following day (day D+1), the culture medium was depleted of serum.
When the test was conducted in the presence of mangiferin, the treatment with mangiferin was complete, i.e. the mangiferin was added to the medium to a content of 2.10^−4 g/100 mL (2.10^−4% w/v) 24 hours before the heat stress, during the heat stress and 24 hours after the onset of heat stress.
On the contrary, no mangiferin at all was added to the references.
After these steps, 24 hours after the heat stress, the MMP1 present in the medium was assayed using a quantitative technique of ELISA type, with a commercial Amersham kit. In parallel, the number of viable cells in the medium was determined using the MTT colorimetric test. On the basis of these elements, a MMP1 content was determined per viable cell unit.
For each of the heat treatment conditions, a reduction in MMP1 content was observed per viable cell unit in the presence of mangiferin, compared with the content obtained in the references without mangiferin. In this respect, a percentage inhibition of MMP1 expression (Pi) is defined which is calculated using the following formula: Pi(as %)=(Tt−Tm)/Tt in which: • Tm designates the MMP1 content per viable cell unit in the presence of mangiferin; • Tt designates the MMP1 content per viable cell unit for the reference without mangiferin under the same heat treatment conditions.

SMILES: O=c1c2cc(O)c(O)cc2oc2cc(O)c([C@@H]3O[C@H](CO)[C@@H](O)[C@H](O)[C@H]3O)c(O)c12 [mangiferin, C-glucoside of tetrahydroxy-1,3,6,7 xanthone]
- Labeling of the HSP70s (HSP70 [1]; NHDFs treated with mangiferin 2.10^-4% for 8 hours after stress (1 hour at +45° C.), vs untreated stressed cells): reduced
- Basic expression of the HSP70s (labeling) (HSP70 [1]; NHDFs, no stress, mangiferin 2.10^-4% for 8 hours): not modified
- Labeling of the HSP70s (HSP70 [2]; NHDFs treated with mangiferin 2.10^-4% for 15 hours before stress (1 hour at +45° C.), read 8 hours after stress, vs untreated stressed cells): further intensified
- Basic expression of the HSP70s (labeling) (HSP70 [2]; NHDFs, no stress, mangiferin 2.10^-4% for 15 hours): not modified
- Solubility in alkaline liquids ([3]; alkaline liquids (salt formation by phenol OH groups)): soluble
- Solubility in cold water ([3]; cold water): scarcely soluble
- Percentage inhibition Pi of MMP1 expression (MMP1 metalloprotease; Cold heat stress: 10 min at −20° C.): 22%
- Percentage inhibition Pi of MMP1 expression (MMP1 metalloprotease; Hot heat stress: 30 min at +45° C.): 51%
- Percentage inhibition Pi of MMP1 expression (MMP1 metalloprotease; Hot heat stress: 30 min at +50° C.): 40%
- Percentage inhibition Pi of MMP1 expression (MMP1 metalloprotease; Hot heat stress: 1 h at +45° C.): 36%
- Percentage inhibition Pi of MMP1 expression (MMP1 metalloprotease; No heat stress: 1 h at +37° C.): 34%
